Measured values: patent publication US6716858B1, “Methods for inhibiting diabetic complications” (Kansas University Medical Center, priority 1995, dated 2004)

Tests used:
[1] = tested on: AGE formation during uninterrupted glycation of ribonuclease A (RNase A) by ribose; experiment: Uninterrupted ribose glycation assay, RNase; type: biochemical, bovine; details: continuous 0.05 M ribose, 6 weeks, inhibitors 0.5-50 mM
Protocol: (§1) ELISA detection of AGE products. The general method of Engvall (1981, Methods Enzymol. 70:419-439) was used to perform the ELISA. Typically, glycated protein samples were diluted to approximately 1.5 ug/ml in 0.1 M sodium carbonate buffer of pH 9.5 to 9.7. The protein was coated overnight at room temperature onto 96-well polystyrene plates by pippetting 200 ul of the protein solution in each well (0.3 ug/well). After coating, the protein was washed from the wells with a saline solution containing 0.05% Tween-20. The wells were then blocked with 200 ul of 1% casein in carbonate buffer for 2 h at 37° C. followed by washing. Rabbit anti-AGE antibodies were diluted at a titer of about 1:350 in incubation buffer, and incubated for 1 h at 37° C., followed by washing. In order to minimize background readings, antibodies R479 used to detect glycated RNase were raised against glycated BSA, and antibodies R618 used to detect glycated BSA and glycated Hb were raised against glycated RNase. An alkaline phosphatase-conjugated antibody to rabbit IgG was then added as the secondary antibody at a titer of 1:2000 or 1:2500 (depending on lot) and incubated for 1 h at 37° C., followed by washing. The p-nitrophenylphosphate substrate solution was then added (200 ul/well) to the plates, with the absorbance of the released p-nitrophenolate being monitored at 410 nm with a Dynatech MR 4000 microplate reader.
(§2) Uninterrupted ribose glycation assays Bovine serum albumin, ribonuclease A, and human hemoglobin were incubated with ribose at 37° C. in 0.4 M sodium phosphate buffer of pH 7.5 containing 0.02% sodium azide. The protein (10 mg/ml or 1 mg/ml), 0.05 M ribose, and prospective inhibitors (at 0.5, 3, 15 and 50 mM) were introduced into the incubation mixture simultaneously. Solutions were kept in the dark in capped tubes. Aliquots were taken and immediately frozen until analyzed by ELISA at the conclusion of the reaction. The incubations were for 3 weeks (Hb) or 6 weeks (RNase, BSA). Glycation reactions were monitored for constant pH throughout the duration of the experiments.
The inhibitory effects of vitamin B1 and B6 derivatives on the kinetics of antigenic AGE formation were evaluated by polyclonal antibodies specific for AGEs. Initial inhibition studies were carried out on the glycation of bovine ribonuclease A (RNase) in the continuous presence of 0.05 M ribose, which is the concentration of ribose where the rate of AGE formation is near maximal.

[2] = tested on: AGE formation in bovine serum albumin (BSA); experiment: Uninterrupted glycation of BSA with glucose, anti-AGE ELISA; type: biochemical; details: BSA 10 mg/ml, 1.0 M glucose, pH 7.5, 37° C., 6 weeks; inhibitors 3, 15 and 50 mM
Protocol: (§3) Uninterrupted Glycation with Glucose Bovine serum albumin, ribonuclease A, and human hemoglobin were incubated with glucose at 37° C. in 0.4 M sodium phosphate buffer of pH 7.5 containing 0.02% sodium azide. The protein, glucose (at 1.0 M), and prospective inhibitors (at 0.5, 3, 15 and 50 mM) were introduced into the incubation mixture simultaneously. Solutions were kept in the dark in capped tubes. Aliquots were taken and immediately frozen until analyzed by ELISA at the conclusion of the reaction. The incubations were for 3 weeks (Hb) or 6 weeks (RNase, BSA).
as §1
FIGS. 1 A-D are graphs which show the effect of vitamin B6 derivatives on post-Amadori AGE formation in bovine serum albumin glycated with glucose. BSA (10 mg/ml) was incubated with 1.0 M glucose in the presence and absence of the various indicated derivative in 0.4 M sodium phosphate buffer of pH 7.5 at 37° C. for 6 weeks. Aliquots were assayed by ELISA using R618 anti-AGE antibodies. Concentrations of the inhibitors were 3, 15 and 50 mM. Inhibitors used in FIGS. (1A) Pyridoxamine (PM); (1B) pyridoxal phosphate (PLP); (1C) pyridoxal (PL); (1D) pyridoxine (PN).
FIGS. 2A-D are graphs which show the effect of vitamin B1 derivatives and aminoguanidine (AG) on AGE formation in bovine serum albumin. BSA (10 mg/ml) was incubated with 1.0 M glucose in the presence and absence of the various indicated derivative in 0.4 M sodium phosphate buffer of pH 7.5 at 37° C. for 6 weeks. Aliquots were assayed by ELISA using R618 anti-AGE antibodies. Concentrations of the inhibitors were 3, 15 and 50 mM. Inhibitors used in FIGS. (2A) Thiamine pyrophosphate (TPP); (2B) thiamine monophosphate (TP); (2C) thiamine (T); (2D) aminoguanidine (AG).

[3] = tested on: AGE formation during uninterrupted glycation of bovine serum albumin (BSA) by ribose; experiment: Uninterrupted ribose glycation assay, BSA; type: biochemical; details: 0.05 M ribose, 6 weeks, inhibitors 0.5-50 mM
Protocol: as §1, §2

[4] = tested on: ribose-treated rats; experiment: Ribose rat model, intervention by compounds (Phase III); type: in vivo; details: for Albumin effusion rate (AER): absence of ribose, pyridoxamine and TPP 250 mg/kg, aminoguanidine 25 mg/kg
Protocol: Sixty rats were randomized into 9 different groups, including those exposed to 1 M ribose for 8 days in the presence and absence of aminoguanidine, pyridoxamine, and thiamine pyrophosphate as follows:
(ii) high dose (250 mg/kg body weight) of pyridoxamine (“compound-P”);
(iii) high dose (250 mg/kg body weight of thiamine pyrophosphate (“compound-T” or “TPP”); and
(iv) low dose (25 mg/kg body weight) of aminoguanidine (“AG”).
(i) only 1 M ribose-saline (2×9 cc daily IP for 8 days);
(ii) ribose plus low dose (“LP”) of pyridoxamine (25 mg/kg body weight injected as 0.5 ml with 9 cc ribose);
(iii) ribose plus high dose (“HP”) of pyridoxamine (250 mg/kg body weight injected as 0.5 ml with 9 cc ribose);
(iv) ribose plus high dose (“HT”) of thiamine pyrophosphate (250 mg/kg body weight injected as 0.5 ml with 9 cc ribose); and
(v) ribose plus low dose of amino guanidine (25 mg/kg body weight injected as 0.5 ml with 9 cc ribose).
Unlike Phase II, no ribose was administered in drinking water. Intervention compounds were pre-administered for one day prior to introducing them with ribose.

[5] = tested on: AGE formation in human methemoglobin (Hb); experiment: Uninterrupted glycation of human methemoglobin with glucose, anti-AGE ELISA; type: biochemical; details: Hb 1 mg/ml, 1.0 M glucose, 3 weeks; inhibitors 0.5, 3, 15 and 50 mM
Protocol: as §3, §1
(§4) Aliquots were assayed by ELISA using R618 anti-AGE antibodies.
as §4

[6] = co-administered with 1 M ribose, 250 mg/kg
[7] = co-administered with 1 M ribose, low dose 25 mg/kg
[8] = compound alone, 250 mg/kg, no ribose

Row | Compound | inhibition of overall kinetics of AGE formation from ribose [1] | inhibition of antigenic AGE formation (ELISA) [2] | inhibition of overall kinetics of AGE formation from ribose [3] | Albumin effusion rate (AER) [4] | creatinine clearance [4, 6] | Albumin effusion rate [4, 7] | creatinine clearance [4, 7] | creatinine clearance [4, 8] | inhibition of antigenic AGE formation (ELISA) [5]
1 | Cc1ncc(CO)c(CN)c1O [pyridoxamine] | best inhibitor of the “final” levels of AGE formed on RNase | strongly suppressed antigenic AGE formation at even the lowest concentrations tested | exhibited some inhibition at lower concentrations, and at the highest concentration tested appeared to inhibit the final levels of AGE formed more effectively than any of the other B6 derivatives | elevated | only partial protection against the ribose-induced decrease in creatinine clearance | restored to normal | normalized | but not pyridoxamine, appeared to decrease creatinine clearance | the most effective inhibitors in each of their respective families
2 | N=C(N)NN [aminoguanidine, reference compound] | decreased the rate of AGE formation on RNase, but did not reduce the final level of AGE formed | produced some inhibition of AGE formation in BSA, but less so than the above compounds | appearing to slow the rate of AGE formation without significantly affecting the final levels of AGE formed | elevated | – | restored to normal | normalized | – | only inhibited the rate of AGE formation, and not the final levels of AGE formed
3 | Cc1ncc(C[n+]2csc(CCO[P@](=O)(O)OP(=O)(O)O)c2C)c(N)n1 [thiamine pyrophosphate] | both the rate of AGE formation and the final levels of AGE produced at the plateau appeared diminished | effective at all concentrations tested | inhibited the final levels of AGEs formed, without greatly affecting the rate of AGE formation | elevated | only partial protection against the ribose-induced decrease in creatinine clearance | – | – | diminished it | the most effective inhibitors in each of their respective families
